Laboratory results: patent US12110293B2, “Substituted triazolo quinoxaline derivatives” (GRÜNENTHAL GMBH, priority 2018, dated 2024)

Biological target: T1, glucocorticoid receptor (Homo sapiens, UniProt P04150)
T1 construct: expressed in transfected cells
T1 sequence (P04150 524-758 limits assumed): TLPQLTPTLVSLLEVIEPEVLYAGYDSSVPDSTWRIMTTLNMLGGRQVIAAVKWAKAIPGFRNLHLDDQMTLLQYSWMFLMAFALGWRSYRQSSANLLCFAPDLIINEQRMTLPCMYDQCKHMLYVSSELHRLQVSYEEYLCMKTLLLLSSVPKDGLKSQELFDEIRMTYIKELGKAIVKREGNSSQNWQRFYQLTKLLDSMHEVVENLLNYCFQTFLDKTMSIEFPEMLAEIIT
Experiment: Agonistic mode of action on the glucocorticoid receptor (CHO-Gal4/GR luciferase reporter cell line)
Type: cell-based
Conditions: range class observed in the agonistic assay or the antagonistic assay (CHO-Gal4/GR reporter cells); table does not say which mode applies per example
From the text: Potential selective glucocorticoid receptor modulators of this intervention can be tested for modulation of the activity of the glucocorticoid receptor using cell-based assays. These assays involve a Chinese hamster ovary (CHO) cell line which contains fragments of the glucocorticoid receptor as well as fusion proteins. The glucocorticoid receptor fragments used are capable of binding the ligand (e.g. beclomethasone) to identify molecules that compete for binding with glucocorticoid receptor ligands. In more detail, the glucocorticoid receptor ligand binding domain is 25 fused to the DNA binding domain (DBD) of the transcriptionfactor GAL4 (GAL4 DBD-GR) and is stably integrated into a CHO cell line containing a GAL4-UAS-Luciferase reporter construct. […] After cell lysis the luminescence that is produced by luciferase after addition of the substrate is detected and EC50 or IC50 values can be calculated. Engagement of molecules which induce gene expression via glucocortocoid receptor binding to the DNA leads to expression of the luciferase gene under the control of the fusion protein GAL4 DBD-GR and therefore to a dose-dependent increase of the luminescence signal. Binding of molecules which repress beclomethasone-induced gene expression of the luciferase gene under the control of the fusion protein GAL4 DBD-GR leads to a dose-dependent reduction of the luminescence signal.
Biological Assays Agonistic Mode of Action on the Glucocorticoid Receptor
The reporter cell line CHO-Gal4/GR consisted of a Chinese hamster ovary (CHO) cell line (Leibniz Institute DSMZ—German Collection of Microorganisms and Cell CuItures GmbH: ACC-110) containing a firefly luciferase gene under the control of the GR ligand binding domain fused to the DNA binding domain (DBD) of GAL4 (GAL4 DBD-GR) stably integrated into CHO cells. This cell line was established by stable transfection of CHO cells with a GAL4-UAS-Luciferase reporter construct. In a subsequent step the ligand binding domain of the GR cloned into pIRES2-EGFP-GAL4 containing the DNA binding domain of GAL4 from pFA-AT2 was transfected. This fusion construct activated firefly luciferase expression under the control of a multimerized GAL4 upstream activation sequence (UAS). The signal of the emitted luminescence was recorded by the FLIPR^TETRA. This allowed for specific detection of ligand-induced activation of the GR and therefore for the identification of compounds with agonistic properties. The GAL4/UAS reporter was premixed with a vector that constitutively expressed Renilla luciferase, which served as an internal positive control for transfection efficiency.
The complete culture medium for the assay was: • DMEM F-12 (1:1) MIXTURE (LONZA cat. N°: BE04-687F/U1) 500 mL • 5 mL of 100 mM Sodium Pyruvate (LONZA cat. N°: BE12-115E) • 25 mL of 7.5% Sodium Bicarbonate (LONZA cat. N° BE17-613E) • 6.5 mL of 1 M Hepes (LONZA cat. N°: BE17-737E) • 5 mL of 100× Penicillin/Streptomycin (LONZA cat. N° DE17-602E) • 50 mL of Fetal Bovine Serum (Euroclone cat. N° ECS 0180L) • 0.25 mL of 10 mg/mL Puromycin (InvivoGen cat.: ant-pr-1) • 0.5 mL of 100 mg/mL Zeocin (InvivoGen cat.: ant-zn-1)
Cryo-preserved CHO-Gal4/GR cells were suspended in complete medium and 5000 cells/25 μl/well were seeded into the wells of 384-well polystyrene assay plates (Thermo Scientific, cat. #4332) and cultured at 37° C., 5% CO2 and 95% humidity. After 24 hours growth medium was carefully removed and replaced by 30 μl Opti-MEM (GIBCO, cat. #31985062) as assay buffer. To test the compounds an 8-point half-log compound dilution curve was generated in 100% DMSO starting from a 2 mM stock and compounds were then diluted 1:50 in Opti-MEM. 10 μl of compounds were then added to the wells containing 30 μl Opti-MEM resulting in a final assay concentration range from 10 μM to 0.003 μM in 0.5% DMSO. Compounds were tested at 8 concentrations in quadruplicate data points.

Compound | IC50 or EC50 (agonist or antagonist mode not specified) [nM]
CC#CCc1nnc2n1-c1c(cc(F)c(-c3cc(F)cc4c(C)c[nH]c34)c1F)NC2(C)C [Example 69, 1-(but-2-yn-1-yl)-7,9-difluoro-8-(5-fluoro-3-methyl-1H-indol-7-yl)-4,4-dimethyl-4,5-dihydro-[1,2,4]triazolo[4,3-a]quinoxaline] | < 100
Cc1nnc2n1-c1c(cc(F)c(-c3cccc4c3ccn4S(=O)(=O)C3CCCC3)c1F)NC2(C)C [Example 201, 8-[1-(Cyclopentylsulfonyl)-1H-indol-4-yl]-7,9-difluoro-1,4,4-trimethyl-5H-[1,2,4]triazolo[4,3-a]quinoxaline] | 1000 to 15000
Cc1nnc2n1-c1c(cc(F)c(-c3cc(F)cc4c3cnn4S(C)(=O)=O)c1C(F)F)NC2(C)C [Example 346, 9-(Difluoro-methyl)-7-fluoro-8-(6-fluoro-1-methylsulfonyl-1H-indazol-4-yl)-1,4,4-trimethyl-5H-[1,2,4]triazolo[4,3-a]quinoxaline] | 100 to 1000
COc1cc2c(c(F)c1-c1cccc3[nH]c(C(F)(F)F)cc13)-n1c(C)nnc1C(C)(C)N2 [Example 257, 9-Fluoro-7-methoxy-1,4,4-trimethyl-8-[2-(trifluoromethyl)-1H-indol-4-yl]-5H-[1,2,4]triazolo[4,3-a]quinoxaline] | 100 to 1000
CC#Cc1c[nH]c2c(-c3c(F)cc4c(c3F)-n3c(CC)nnc3C(C)(C)N4)cc(F)cc12 [Example 16, 1-ethyl-7,9-difluoro-8-(5-fluoro-3-(prop-1-yn-1-yl)-1H-indol-7-yl)-4,4-dimethyl-4,5-dihydro-[1,2,4]triazolo[4,3-a]quinoxaline] | 100 to 1000
Cc1nnc2n1-c1c(cc(OC(F)F)c(-c3cccc4[nH]c(C(F)(F)F)cc34)c1F)NC2(C)C [Example 252, 7-(Difluoro-methoxy)-9-fluoro-1,4,4-trimethyl-8-[2-(trifluoromethyl)-1H-indol-4-yl]-5H-[1,2,4]triazolo[4,3-a]quinoxaline] | 100 to 1000
CCc1c[nH]c2c(-c3c(F)cc4c(c3F)-n3c(C)nnc3C(C)(C)N4)cc(F)cc12 [Example 43, 8-(3-ethyl-5-fluoro-1H-indol-7-yl)-7,9-difluoro-1,4,4-trimethyl-4,5-dihydro-[1,2,4]triazolo[4,3-a]quinoxaline] | < 100
COCCn1ccc2c(-c3c(OC(F)F)cc4c(c3C)-n3c(C)nnc3C(C)(C)N4)cccc21 [Example 336, 7-(Difluoro-methoxy)-8-[1-(2-methoxy-ethyl)-1H-indol-4-yl]-1,4,4,9-tetramethyl-5H-[1,2,4]triazolo[4,3-a]quinoxaline] | 1000 to 15000
Cc1c(-c2cc(F)cc3c2ccn3S(C)(=O)=O)c(Cl)cc2c1-n1c(C)nnc1C(C)(C)N2 [Example 333, 7-Chloro-8-(6-fluoro-1-methylsulfonyl-1H-indol-4-yl)-1,4,4,9-tetramethyl-5H-[1,2,4] triazolo[4,3-a]quinoxaline] | < 100
COc1cc2c(c(C)c1-c1cc(F)cc3c(C)c[nH]c13)-n1c(C)nnc1C(C)(C)N2 [Example 345, 8-(5-Fluoro-3-methyl-1H-indol-7-yl)-7-methoxy-1,4,4,9-tetramethyl-5H-[1,2,4]triazolo[4,3-a]quinoxaline] | 100 to 1000
COc1c(-c2cc(F)cc3c2ccn3S(C)(=O)=O)c(F)cc2c1-n1c(C)nnc1C(C)(C)N2 [Example 250, 7-Fluoro-8-(6-fluoro-1-methylsulfonyl-1H-indol-4-yl)-9-methoxy-1,4,4-trimethyl-5H-[1,2,4]triazolo[4,3-a]quinoxaline] | < 100
Cc1c(-c2cccc3c(CC(F)(F)F)c[nH]c23)c(F)cc2c1-n1c(C)nnc1C(C)(C)N2 [Example 24, 7-fluoro-1,4,4,9-tetramethyl-8-(3-(2,2,2-trifluoroethyl)-1H-indol-7-yl)-4,5-dihydro-[1,2,4]triazolo[4,3-a]quinoxaline] | < 100
Cc1nnc2n1-c1c(cc(F)c(-c3cccc4c3ccn4CCNC(=O)C(C)(F)F)c1F)NC2(C)C [Example 229, N-[2-[4-(7,9-Difluoro-1,4,4-trimethyl-5H-[1,2,4]triazolo[4,3-a]quinoxalin-8-yl)-1H-indol-1-yl]-ethyl]-2,2-difluoro-propionamide] | 1000 to 15000
CCc1nnc2n1-c1c(cc(F)c(-c3cc(F)cc4c3ccn4CCOC)c1C)NC2(C)C [Example 36, 1-ethyl-7-fluoro-8-(6-fluoro-1-(2-methoxyethyl)-1H-indol-4-yl)-4,4,9-trimethyl-4,5-dihydro-[1,2,4]triazolo[4,3-a]quinoxaline] | 100 to 1000

Now from value to compound:

IC50 or EC50 (agonist or antagonist mode not specified) [nM] | Compound
1000 to 15000 | Cc1cc2c(c(F)c1-c1cccc3c1ccn3CC(F)F)-n1c(C)nnc1C(C)(C)N2 [Example 392, 8-[1-(2,2-Difluoro-ethyl)-1H-indol-4-yl]-9-fluoro-1,4,4,7-tetramethyl-5H-[1,2,4]triazolo[4,3-a]quinoxaline]
100 to 1000 | Cc1nnc2n1-c1c(ccc(-c3cc(F)cc4c3ccn4S(C)(=O)=O)c1C(F)(F)F)NC2(C)C [Example 499, 8-(6-Fluoro-1-methylsulfonyl-1H-indol-4-yl)-1,4,4-trimethyl-9-(trifluoromethyl)-5H-[1,2,4]triazolo[4,3-a]quinoxaline]
100 to 1000 | Cc1nnc2n1-c1c(cc(F)c(-c3cc(C#N)cc4[nH]ccc34)c1C(F)(F)F)NC2(C)C [Example 479, 4-[7-Fluoro-1,4,4-trimethyl-9-(trifluoromethyl)-5H-[1,2,4]triazolo[4,3-a]quinoxalin-8-yl]-1H-indole-6-carbonitrile]
100 to 1000 | Cc1c(-c2cccc3c2ccn3C)c(Cl)cc2c1-n1c(C)nnc1C(C)(C)N2 [Example 488, 7-Chloro-1,4,4,9-tetramethyl-8-(1-methyl-1H-indol-4-yl)-5H-[1,2,4]triazolo[4,3-a]quinoxaline]
< 100 | Cc1nnc2n1-c1c(cc(F)c(-c3cc(F)cc4c3ccn4S(C)(=O)=O)c1C(F)F)NC2(C)C [Example 390, 9-(Difluoro-methyl)-7-fluoro-8-(6-fluoro-1-methylsulfonyl-1H-indol-4-yl)-1,4,4-trimethyl-5H-[1,2,4]triazolo[4,3-a]quinoxaline]
100 to 1000 | COc1cc(-c2c(F)cc3c(c2C)-n2c(C)nnc2C(C)(C)N3)c2ccn(S(C)(=O)=O)c2c1 [Example 537, 7-Fluoro-8-(6-methoxy-1-methylsulfonyl-1H-indol-4-yl)-1,4,4,9-tetramethyl-5H-[1,2,4] triazolo[4,3-a]quinoxaline]
100 to 1000 | Cc1c(-c2cccc3[nH]ncc23)c(F)cc2c1-n1c(C)nnc1C(C)(C)N2 [Example 510, 7-Fluoro-8-(1H-indaxol-4-yl)-1,4,4,9-tetramethyl-5H-[1,2,4] triazolo[4,3-a]quinoxaline]
